Source: ChEMBL document CHEMBL1201862, “PubChem BioAssay data set” (2004)
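Following 48 hours of exposure in 96-well plates, responses at five concentrations were used to interpolate endpoints linearly. At the GI50, growth is halved.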 Calls of active or inactive are those of the source. Rule as the data show it: active = GI50 up to about 1.1 µM and inactive = higher.

What was measured:
Experiment in all cases: NCI tumour cell line growth inhibition, 48 h
ACHN = tested on: ACHN
COLO 205 = tested on: COLO 205
HOP-62 = tested on: HOP-62
HOP-92 = tested on: HOP-92
KM12 = tested on: KM12
MOLT-4 = tested on: MOLT-4
Malme-3M = tested on: Malme-3M
NCI-H226 = tested on: NCI-H226
OVCAR-4 = tested on: OVCAR-4
OVCAR-5 = tested on: OVCAR-5
SF-539 = tested on: SF-539
NCI-H522 = tested on: NCI-H522
RXF 393 = tested on: RXF 393
UACC-257 = tested on: UACC-257
SK-MEL-5 = tested on: SK-MEL-5

Row | SMILES | GI50 (ACHN) | GI50 (COLO 205) | GI50 (HOP-62) | GI50 (HOP-92) | GI50 (KM12) | GI50 (MOLT-4) | GI50 (Malme-3M) | GI50 (NCI-H226) | GI50 (OVCAR-4) | GI50 (OVCAR-5) | GI50 (SF-539) | GI50 (NCI-H522) | GI50 (RXF 393) | GI50 (UACC-257) | GI50 (SK-MEL-5)
1 | O=C(CN1CCOCC1)Nc1nc(-c2ccc(Cl)cc2)cs1 | 25.1 µM (inactive) | 31.9 µM (inactive) | 22.6 µM (inactive) | 53.7 µM (inactive) | 19.5 µM (inactive) | 13.8 µM (inactive) | 23.1 µM (inactive) | 24 µM (inactive) | 25.7 µM (inactive) | 89.7 µM (inactive) | 44.4 µM (inactive) | – | – | – | –
2 | CSCCOC(=O)C(=[N+]=[N-])c1ccc([N+](=O)[O-])cc1 | > 100 µM (inactive) | > 100 µM (inactive) | > 100 µM (inactive) | – | > 100 µM (inactive) | > 100 µM (inactive) | > 100 µM (inactive) | > 100 µM (inactive) | > 100 µM (inactive) | > 100 µM (inactive) | > 100 µM (inactive) | > 100 µM (inactive) | > 100 µM (inactive) | > 100 µM (inactive) | –
3 | O=C(O)C12C3C4C1C1C2C3C1(Br)C41OCCO1 (stereo not given) | > 100 µM (inactive) | > 100 µM (inactive) | > 100 µM (inactive) | > 100 µM (inactive) | > 100 µM (inactive) | > 100 µM (inactive) | > 100 µM (inactive) | – | – | > 100 µM (inactive) | > 100 µM (inactive) | > 100 µM (inactive) | > 100 µM (inactive) | > 100 µM (inactive) | > 100 µM (inactive)
4 | CCCCC(N)CSSCC(N)CCCC (stereo not given) | 34.4 µM (inactive) | 52.7 µM (inactive) | 27.3 µM (inactive) | – | 49.2 µM (inactive) | 19.2 µM (inactive) | 18.1 µM (inactive) | 23.5 µM (inactive) | 18.2 µM (inactive) | 20.5 µM (inactive) | 23.7 µM (inactive) | 15 µM (inactive) | – | 20.5 µM (inactive) | 22.9 µM (inactive)
5 | CCCc1nc(N)nc(C(=O)Nc2cccc(C(F)(F)F)c2)c1CC | > 100 µM (inactive) | – | > 100 µM (inactive) | > 100 µM (inactive) | > 100 µM (inactive) | > 100 µM (inactive) | > 100 µM (inactive) | > 100 µM (inactive) | > 100 µM (inactive) | > 100 µM (inactive) | > 100 µM (inactive) | – | > 100 µM (inactive) | > 100 µM (inactive) | > 100 µM (inactive)
6 | CCOC(C[C@H](O[Si](C)(C)C(C)(C)C)[C@H]1COC(=S)S1)OCC | 48.5 µM (inactive) | 66.1 µM (inactive) | 43.6 µM (inactive) | – | 50.7 µM (inactive) | 34.7 µM (inactive) | > 100 µM (inactive) | 85.1 µM (inactive) | – | – | 33.6 µM (inactive) | 23.3 µM (inactive) | – | 35 µM (inactive) | 48.1 µM (inactive)
7 | CC(CCC(=O)O)c1ccc(Br)cc1 (stereo not given) | > 100 µM (inactive) | > 100 µM (inactive) | > 100 µM (inactive) | – | > 100 µM (inactive) | > 100 µM (inactive) | > 100 µM (inactive) | > 100 µM (inactive) | > 100 µM (inactive) | > 100 µM (inactive) | – | > 100 µM (inactive) | > 100 µM (inactive) | > 100 µM (inactive) | > 100 µM (inactive)
8 | NCCCCNc1ccc2c(=O)[nH][nH]c(=O)c2c1 | > 100 µM (inactive) | > 100 µM (inactive) | > 100 µM (inactive) | > 100 µM (inactive) | > 100 µM (inactive) | > 100 µM (inactive) | > 100 µM (inactive) | > 100 µM (inactive) | > 100 µM (inactive) | > 100 µM (inactive) | > 100 µM (inactive) | > 100 µM (inactive) | > 100 µM (inactive) | > 100 µM (inactive) | > 100 µM (inactive)
9 | CCN(CC)c1oc(N(CC)CC)c(C(=O)Nc2ccccn2)c(=O)c1C(C)=O | > 100 µM (inactive) | > 100 µM (inactive) | > 100 µM (inactive) | > 100 µM (inactive) | > 100 µM (inactive) | > 100 µM (inactive) | > 100 µM (inactive) | > 100 µM (inactive) | – | > 100 µM (inactive) | > 100 µM (inactive) | > 100 µM (inactive) | – | – | > 100 µM (inactive)
10 | NC(=S)N1N=C2c3ccccc3CC[C@H]2[C@@H]1c1cccs1 | 49.2 µM (inactive) | 16.5 µM (inactive) | 33.3 µM (inactive) | 68.7 µM (inactive) | 26.6 µM (inactive) | 21.5 µM (inactive) | 19.2 µM (inactive) | 29 µM (inactive) | 45.2 µM (inactive) | > 100 µM (inactive) | 43.2 µM (inactive) | 16.8 µM (inactive) | 16.8 µM (inactive) | 28 µM (inactive) | –
11 | CCCCCCCCCCCOc1ccc(C(=O)C(=O)c2ccc(OCCCCCCCCCCC)c(OCCCCCCCCCCC)c2)cc1OCCCCCCCCCCC | > 100 µM (inactive) | > 100 µM (inactive) | > 100 µM (inactive) | – | > 100 µM (inactive) | 80.7 µM (inactive) | > 100 µM (inactive) | > 100 µM (inactive) | > 100 µM (inactive) | > 100 µM (inactive) | > 100 µM (inactive) | > 100 µM (inactive) | – | > 100 µM (inactive) | > 100 µM (inactive)
12 | CCc1nc(N)nc(C(=O)NCCNC(=O)c2nc(N)nc(CC)c2C)c1C | > 100 µM (inactive) | – | > 100 µM (inactive) | > 100 µM (inactive) | > 100 µM (inactive) | > 100 µM (inactive) | > 100 µM (inactive) | > 100 µM (inactive) | > 100 µM (inactive) | > 100 µM (inactive) | > 100 µM (inactive) | – | > 100 µM (inactive) | > 100 µM (inactive) | > 100 µM (inactive)
13 | COc1cc(OC)c(/C=C2\N=C(C)N(Nc3nnc(NN4C(=O)/C(=C/c5c(OC)cc(OC)cc5OC)N=C4C)c4ccccc34)C2=O)c(OC)c1 | > 100 µM (inactive) | > 100 µM (inactive) | > 100 µM (inactive) | > 100 µM (inactive) | > 100 µM (inactive) | > 100 µM (inactive) | – | > 100 µM (inactive) | > 100 µM (inactive) | > 100 µM (inactive) | > 100 µM (inactive) | > 100 µM (inactive) | > 100 µM (inactive) | > 100 µM (inactive) | > 100 µM (inactive)
14 | Cc1c(C(=O)/C=C/c2ccc([N+](=O)[O-])cc2)[n+]([O-])c2ccccc2[n+]1[O-] | > 100 µM (inactive) | > 100 µM (inactive) | > 100 µM (inactive) | 31.8 µM (inactive) | 93.5 µM (inactive) | 20.7 µM (inactive) | > 100 µM (inactive) | > 100 µM (inactive) | 24.8 µM (inactive) | > 100 µM (inactive) | 49.1 µM (inactive) | 20.5 µM (inactive) | 29.1 µM (inactive) | > 100 µM (inactive) | –
15 | Cc1c2cc[n+](C)cc2c(C)c2c1[nH]c1ccc(Oc3ccccc3)cc12 | 2.48 µM (inactive) | 0.845 µM (active) | 0.518 µM (active) | 0.935 µM (active) | 0.736 µM (active) | 1.69 µM (inactive) | 1.71 µM (inactive) | 0.544 µM (active) | 2.56 µM (inactive) | 2.51 µM (inactive) | 1.26 µM (inactive) | – | – | 1.28 µM (inactive) | 1.01 µM (active)
